Legend:
BRCA1-deficient cells = conditions: cited from earlier work
BOGA cells [1] = assay: Western blot of protein levels in BOGA cells after treatment; format: cell-based
Protocol: MCF7 cells were a gift from J. Weber (Washington University, St. Louis, Mo.). Cells were maintained in DMEM (Cellgro) supplemented with 10% fetal bovine serum (Sigma-Aldrich), antibiotics, and antimycotics. Cells transduced with short hairpin RNAs (shRNAs) were maintained in selection media containing 0.5 mg/mL Geneticin G418 (Gibco) or 2 μg/mL puromycin (Invitrogen).
Cells were lysed in RIPA buffer (50 mM Tris-HCl pH 8.0, 150 mM NaCl, 1% NP-40, 0.5% sodium deoxycholate, 0.5% SDS) supplemented with PMSF, protease inhibitors, and DTT. Following sonication, 120 μg of total cell lysate was loaded into 4%-15% Tris-Gly gradient gels. Protein detection was carried out with the following antibodies: BRCA1 (sc-6954, Santa Cruz), 53BP1 (NB100-304, Novus Biologicals), cathepsin L (sc-6498, Santa Cruz), p107 (sc-318, Santa Cruz), RAD51 (sc-8349, Santa Cruz), RPA (NA18, Calbiochem), and β-Tubulin (T8328, Sigma-Aldrich).
(§1) Aliquots of 1 nmol calcitriol were resuspended in 1 mL of bovine growth serum (BGS) and diluted in DMEM with antibiotics and antimycotics to a final concentration of 10% BGS. BGS was used as the vehicle in control media. Treatment was carried out for 24 hours unless indicated otherwise.
(§2) Cells were incubated with the broad spectrum cathepsin inhibitor E-64 (E3132, Sigma-Aldrich) at a concentration of 10 μM. Water served as the vehicle in control media. Treatment was carried out for 24 hours unless indicated otherwise.

BOGA cells [2] = assay: Analysis of aberrant chromosomes in metaphase spreads (genomic instability); format: cell-based
Protocol: as §1, §2
Cells were treated with the PARPi EB-47 (E8405, Sigma-Aldrich) at a concentration of 1.2 μg/mL for 48 hours. PARPi was dissolved in water, which was used as vehicle control.
(§3) For determining the extent of genomic instability, cells were irradiated with 2 Gy and analysis of metaphase spreads was performed 24 hours post-irradiation. For assaying formation of IRIF, cells were irradiated with 8 Gy and fixed and processed for immunofluorescence 1 hour, 3 hours, or 6 hours post-irradiation as indicated. For comet assays, cells were irradiated with 8 Gy.
Following all treatments, cells were arrested in mitosis by treatment with colcemid for 4 hours and metaphase spreads prepared by hypotonic swelling in 0.56% KCl, followed by fixation in 3:1 methanol:acetic acid. Cell suspensions were dropped onto slides and stained for 25 minutes in Wright-Giemsa Stain (9380-32, Ricca Chemical Company) and then washed in water. Slides were allowed to dry and were mounted using Eukitt Mounting Reagent and analyzed on an Olympus BX51 light microscope.

BOGA cells [3] = assay: 53BP1 IRIF formation by immunofluorescence; format: cell-based; conditions: BOGA cells (sh BRCA1), vitamin D 10−7 M from 24 hours prior to 8 Gy, fixed 6 hours post-IR
Protocol: (§4) Aliquots of 1 nmol calcitriol were resuspended in 1 mL of bovine growth serum (BGS) and diluted in DMEM with antibiotics and antimycotics to a final concentration of 10% BGS. BGS was used as the vehicle in control media. Treatment was carried out for 24 hours unless indicated otherwise. For determining the extent of genomic instability, cells were irradiated with 2 Gy and analysis of metaphase spreads was performed 24 hours post-irradiation. For assaying formation of IRIF, cells were irradiated with 8 Gy and fixed and processed for immunofluorescence 1 hour, 3 hours, or 6 hours post-irradiation as indicated. For comet assays, cells were irradiated with 8 Gy. Cells were plated on coverslips, irradiated with 8 Gy if indicated, and collected at the varying time intervals. Cells were fixed with 3.7% formaldehyde and 0.2% TritonX-100 in PBS for 10 minutes at RT, followed by 3 washes in PBS. After blocking in 1% BSA and 0.1% Triton X-100 in PBS for 1 hour at 37° C., cells were incubated with 53BP1 (NB100-304, Novus Biologicals) or RAD51 (sc-8349, Santa Cruz) antibodies for 1 hour at 37° C. Three washes in PBS were carried out followed by incubation for 1 hour at 37° C. with appropriate secondary antibodies. Final washes in PBS were carried out and cells were counterstained with DAPI and coverslips were mounted on slides using Vectashield (Vector Labs). […]

BOGA cells [4] = assay: RAD51 IRIF formation by immunofluorescence; format: cell-based; conditions: vitamin D, 8 Gy
Protocol: as §4

BOGA cells [5] = assay: Neutral comet assay, kinetics of DNA DSBs repair; format: cell-based; conditions: vitamin D 10−7 M 24 h preirradiation, 8 Gy
Protocol: as §3
Neutral comet assays were performed using CometSlide assay kits (Trevigen). […] Cells were embedded in agarose, lysed, and subjected to neutral single cell gel electrophoresis. The agarose was dehydrated and cells were stained with ethidium bromide to visualize under a fluorescence microscope. Olive comet moment was determined using the program CometScore Version 1.5 (TriTek). Olive moment was calculated by multiplying the percentage of DNA in the tail by the displacement between the means of the head and tail distributions as described (Olive et al., 1990). A total of 25-30 comets were analyzed per sample in each experiment.

[6] = BRCA1-deficient (BOGA) cells, E64 10 μM

CNCc1ccc(-c2[nH]c3cc(F)cc4c3c2CCNC4=O)cc1 [AG014699]
Clonogenic survival of BRCA1-deficient cells compared to cells expressing BRCA1 (BRCA1-deficient cells): clear reduction

CC(C)C[C@H](NC(=O)[C@H]1O[C@@H]1C(=O)O)C(=O)NCCCCN=C(N)N [E64]
53BP1 protein levels (western blot) (BOGA cells [1]; [6]): increased levels | CTSL levels (western blot) (BOGA cells [1]; [6]): without major changes | Genomic instability after IR (BOGA cells [2]; E64 24 h prior to 2 Gy): marked increase

Nc1ncnc2c1ncn2[C@@H]1O[C@H](C(=O)N2CCN(CC(=O)Nc3cccc4c3CNC4=O)CC2)[C@@H](O)[C@H]1O [EB-47]
Genomic instability (metaphases with chromosomal aberrations) (BOGA cells [2]; PARPi EB-47 1.2 μg/mL 48 h alone): does not result in profound genomic instability

O=C1CCC(=O)N1c1cc(Cc2n[nH]c(=O)c3ccccc23)ccc1F [KU0058684]
Clonogenic survival of BRCA1-deficient cells compared to cells expressing BRCA1 (BRCA1-deficient cells): clear reduction

O=C(c1cc(Cc2n[nH]c(=O)c3ccccc23)ccc1F)N1CCCNCC1 [KU0058948]
Clonogenic survival of BRCA1-deficient cells compared to cells expressing BRCA1 (BRCA1-deficient cells): clear reduction

C=C1/C(=C\C=C2/CCC[C@]3(C)[C@@H]([C@H](C)CCCC(C)(C)O)CC[C@@H]23)C[C@@H](O)C[C@@H]1O [vitamin D, 1α,25-dihydroxyvitamin D3]
53BP1 protein levels (western blot) (BOGA cells [1]; BOGA cells, vitamin D 10−7 M): stabilizes | p107 levels (control for inhibition of CTSL activity) (BOGA cells [1]; BOGA cells, vitamin D 10−7 M): stabilization | % cells with 53BP1 foci (BOGA cells [3]): 84% | % cells with 53BP1 foci (BOGA cells [3]; listed as vit D): 84% | % cells positive for RAD51 IRIF (BOGA cells [4]; 1 hour post-IR): 35% | Extent of RAD51 IRIF at later times post-irradiation (BOGA cells [4]; 3 h post-IR): did not affect | Kinetics of DNA DSBs repair (fast phase), Olive comet moment (BOGA cells [5]): rescues | Extent of chromosomal aberrations in response to PARPi (BOGA cells [2]; vitamin D 10−7 M 24 h prior to and with PARPi EB-47 1.2 μg/mL 48 h): increase | Percentage of metaphases with aberrant chromosomes after IR (BOGA cells [2]; vitamin D 24 h prior to 2 Gy, 24 h post-IR): significantly increased | Genomic instability (metaphases with chromosomal aberrations), single agent (BOGA cells [2]; vitamin D alone, mock irradiation): modest increase
